Values quoted from earlier work in patent US8440796B2, “Lenalidomide and thalidomide immunoassays” (Saladax Biomedical Inc., priority 2010, dated 2013).
Where two headings read alike, the source gives them in different places.

Legend:
[1] = patients with central nervous system tumors
[2] = healthy subjects
[3] = HIV patients, phase I study

Row | variability in Cmax [1] | variability in t1/2 [1] | SMILES | variability in Cmax [2] | variability in t1/2 [2] | half-life time t1/2 [3] [h] | maximum drug concentration Cmax [3] [mg/L]
1 | up to 78% | up to 122% | Nc1cccc2c1CN(C1CCC(=O)NC1=O)C2=O (stereo not drawn) [lenalidomide] | – | – | – | –
2 | – | – | O=C1CCC(N2C(=O)c3ccccc3C2=O)C(=O)N1 (stereo not drawn) [thalidomide] | up to 52% | up to 37% | 5.9 ± 2.3 | 2.8 ± 2.6
